As a reminder, the solubility is the dissolved amount per volume that the medium holds. The low end stands for little dissolved substance, the high end for much dissolved substance.

This data set in a line: Assessment of solubility (McIlvaine buffers, 24 h shake, UPLC-UV). Particulars: kinetic from dmso stock. It is filed as physicochemical. In outline:
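Compounds from 10 mM DMSO stocks were shaken for 24 h at room temperature in McIlvaine buffers at pH 2.2, 4.5 and 6.8 (2.5% v/v DMSO final), then filtered. Filtrates were quantified by UPLC-UV at 254 nm against a 50:50 acetonitrile/water reference assumed fully dissolved, as a single determination.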

Values after ≈ are worked out from the molar mass of the structure shown.

In the case of `CCOc1c(C(=O)O)cnn1-c1cccc(-c2cccc(C)c2OCc2ccc3c(c2C)CCN(CC2CCOC(C)(C)C2)C3)n1` (stereo not drawn) [Compound 163], the concentration in solution (pH 2.2, aqueous buffer) (solubility at 24 h) came to 110 µg/mL (≈ 176 µM); the concentration in solution (pH 4.5, aqueous buffer) (solubility at 24 h) came to 75 µg/mL (≈ 120 µM); the concentration in solution (pH 6.8, aqueous buffer) (solubility at 24 h) came to 73 µg/mL (≈ 117 µM).

As to `CCOc1c(C(=O)O)cnn1-c1cccc(-c2cccc(C)c2OCc2ccc3c(c2C)CCN(C2COC2)C3)n1` [Compound 164], the solubility at 24 h by setting is: (pH 2.2, aqueous buffer) 100 µg/mL (≈ 180 µM); (pH 4.5, aqueous buffer) 72 µg/mL (≈ 130 µM); (pH 6.8, aqueous buffer) 93 µg/mL (≈ 168 µM).

Consider `CCOc1c(C(=O)O)cnn1-c1cccc(-c2cccc(C)c2OCc2ccc3c(c2C(F)(F)F)CCN(C2CCOCC2)C3)n1` [Compound 165], for which the concentration in solution (pH 2.2, aqueous buffer) (solubility at 24 h) came to 120 µg/mL (≈ 188 µM); the solubility at 24 h (pH 4.5, aqueous buffer) came out at 58 µg/mL (≈ 91.1 µM); the solubility at 24 h (pH 6.8, aqueous buffer) turned out to be 39 µg/mL (≈ 61.3 µM).

As for `COc1c(C(=O)O)cnn1-c1cccc(-c2cccc(C)c2OCc2ccc3c(c2C(F)(F)F)CCN(C2CCOCC2)C3)n1` [Compound 166], the solubility at 24 h was found to be 110 µg/mL (≈ 177 µM) (pH 2.2, aqueous buffer); 51 µg/mL (≈ 81.9 µM) (pH 4.5, aqueous buffer); 64 µg/mL (≈ 103 µM) (pH 6.8, aqueous buffer).

Take `COc1c(C(=O)O)cnn1-c1cccc(-c2cccc(C)c2OCc2ccc3c(c2C)CCN(C2CCOCC2)C3=O)n1` [Compound 167, 5-Methoxy-1-(6-{3-methyl-2-[5-methyl-1-oxo-2-(tetrahydro-pyran-4-yl)-1,2,3,4-tetrahydro-isoquinolin-6-ylmethoxy]-phenyl}-pyridin-2-yl)-1H-pyrazole-4-carboxylic acid]: the solubility at 24 h runs as follows: (pH 2.2, aqueous buffer) 2.1 µg/mL (≈ 3.6 µM); (pH 4.5, aqueous buffer) 5.9 µg/mL (≈ 10.1 µM); (pH 6.8, aqueous buffer) 83 µg/mL (≈ 142 µM).

`CCOc1c(C(=O)O)cnn1-c1cccc(-c2cccc(C)c2OCc2ccc3c(c2C)CCN(CCOCCO)C3)n1` [Compound 168] displayed a solubility at 24 h (pH 2.2, aqueous buffer) of 110 µg/mL (≈ 187 µM); a solubility at 24 h (pH 4.5, aqueous buffer) of 90 µg/mL (≈ 153 µM); a solubility at 24 h (pH 6.8, aqueous buffer) of 88 µg/mL (≈ 150 µM).

Compound `CCOc1c(C(=O)O)cnn1-c1cccc(-c2cccc(C)c2OCc2cc(C)c3c(c2)CCN(C2CCOCC2)C3)n1` [Compound 169] displayed a solubility at 24 h (pH 2.2, aqueous buffer) of 120 µg/mL (≈ 206 µM); a solubility at 24 h (pH 4.5, aqueous buffer) of 100 µg/mL (≈ 172 µM); a solubility at 24 h (pH 6.8, aqueous buffer) of 97 µg/mL (≈ 166 µM).

For the compound `CCOc1c(C(=O)O)cnn1-c1cccc(-c2cccc(C)c2OCc2ccc3c(c2C)CCN(C[C@H]2COCCO2)C3)n1` [Compound 170], the solubility at 24 h reads like this: (pH 2.2, aqueous buffer) 120 µg/mL (≈ 200 µM); (pH 4.5, aqueous buffer) 96 µg/mL (≈ 160 µM); (pH 6.8, aqueous buffer) 95 µg/mL (≈ 159 µM).

`COc1c(C(=O)O)cnn1-c1cccc(-c2cccc(C)c2OCc2cc(C)c3c(c2)CCN(C2CCOCC2)C3)n1` [Compound 171]: the solubility at 24 h is 120 µg/mL (≈ 211 µM) (pH 2.2, aqueous buffer); 99 µg/mL (≈ 174 µM) (pH 4.5, aqueous buffer); 98 µg/mL (≈ 172 µM) (pH 6.8, aqueous buffer).

For the compound `CCOc1c(C(=O)O)cnn1-c1cccc(-c2cccc(C)c2OCc2ccc3c(c2C)CCN(CC2CCOCC2)C3)n1` [Compound 172], the solubility at 24 h turned out to be 110 µg/mL (≈ 184 µM) (pH 2.2, aqueous buffer); 87 µg/mL (≈ 146 µM) (pH 4.5, aqueous buffer); 85 µg/mL (≈ 142 µM) (pH 6.8, aqueous buffer).

`CCOc1c(C(=O)O)cnn1-c1cccc(-c2cccc(C)c2OCc2cc(C)c3c(c2)CCN(C2CCCOC2)C3)n1` (stereo not drawn) [Compound 173] registered a solubility at 24 h (pH 2.2, aqueous buffer) of 130 µg/mL (≈ 223 µM); a solubility at 24 h (pH 4.5, aqueous buffer) of 98 µg/mL (≈ 168 µM); a solubility at 24 h (pH 6.8, aqueous buffer) of 97 µg/mL (≈ 166 µM).

Turning to `CCOc1c(C(=O)O)cnn1-c1cccc(-c2cccc(C)c2OCc2cc(C)c3c(c2)CCN(C2COC2)C3)n1` [Compound 174], the solubility at 24 h (pH 2.2, aqueous buffer) amounted to 99 µg/mL (≈ 178 µM); the concentration in solution (pH 4.5, aqueous buffer) (solubility at 24 h) was 71 µg/mL (≈ 128 µM); the solubility at 24 h (pH 6.8, aqueous buffer) came to 91 µg/mL (≈ 164 µM).

On to `CCOc1c(C(=O)O)cnn1-c1cccc(-c2cccc(C)c2OCc2ccc3c(c2C)CCN(C2COC2)CC3)n1` [Compound 175], for which the solubility at 24 h by setting is: (pH 2.2, aqueous buffer) 110 µg/mL (≈ 193 µM); (pH 4.5, aqueous buffer) 80 µg/mL (≈ 141 µM); (pH 6.8, aqueous buffer) 85 µg/mL (≈ 149 µM).

`COc1c(C(=O)O)cnn1-c1cccc(-c2cccc(C)c2OCc2ccc3c(c2C)CCN(C2COC2)CC3)n1` [Compound 176] came in with a solubility at 24 h (pH 2.2, aqueous buffer) of 100 µg/mL (≈ 180 µM); a solubility at 24 h (pH 4.5, aqueous buffer) of 77 µg/mL (≈ 139 µM); a solubility at 24 h (pH 6.8, aqueous buffer) of 43 µg/mL (≈ 77.5 µM).

For the compound `COc1c(C(=O)O)cnn1-c1cccc(-c2cccc(C)c2OCc2ccc3c(c2F)CCN(C2COC2)C3)n1` [Compound 177], the solubility at 24 h reads like this: (pH 2.2, aqueous buffer) 110 µg/mL (≈ 202 µM); (pH 4.5, aqueous buffer) 58 µg/mL (≈ 107 µM); (pH 6.8, aqueous buffer) 86 µg/mL (≈ 158 µM).

In the case of `COc1c(C(=O)O)cnn1-c1cccc(-c2cccc(C)c2OCc2cc(C)c3c(c2C)CCN(C2COC2)C3)n1` [Compound 178], the solubility at 24 h is, setting by setting: (pH 2.2, aqueous buffer) 100 µg/mL (≈ 180 µM); (pH 4.5, aqueous buffer) 72 µg/mL (≈ 130 µM); (pH 6.8, aqueous buffer) 86 µg/mL (≈ 155 µM).

On to `CCOc1c(C(=O)O)cnn1-c1cccc(-c2cccc(C)c2OCc2ccc3c(c2C)CCN(C[C@H]2COC(C)(C)O2)C3)n1` [Compound 179], for which the solubility at 24 h by setting is: (pH 2.2, aqueous buffer) 43 µg/mL (≈ 70.2 µM); (pH 4.5, aqueous buffer) 92 µg/mL (≈ 150 µM); (pH 6.8, aqueous buffer) 93 µg/mL (≈ 152 µM).
